Reference: patent US9290452B2, “Multicomponent crystalline system comprising deferasirox and isonicotinamide and a process for the preparation thereof” (BASF SE, priority 2012, dated 2016)

Experiments:
[1] = Dynamic water vapor adsorption measurements (DVS); format: physicochemical; conditions: water vapor sorption
Source text: It is known that the anhydrous form A of Deferasirox converts to a hydrate form upon exposure to high relative humidity, therefore anhydrous Deferasirox is hygroscopic. The multicomponent crystalline system described here is characterized in that it has good hygroscopic properties, i.e. absorb little water at high relative humidity. This is evident from table 1 below, which compares the water contents of the multicomponent crystalline system and Deferasirox free drug substance at 50% and 95% relative humidity. The data originate from dynamic water vapor adsorption measurements. The water vapor sorption measurement is a suitable method for investigating the hygroscopic properties of solid substances. Water vapor sorption measurements can be carried out in different ways. In general, in this connection, a small sample of ca. 10-30 mg is introduced into a microbalance in a suitable sample carrier. The sample is then exposed to different relative humidities in accordance with a defined program, the change in the sample mass being simultaneously recorded over the time. […]
Dynamic water vapor adsorption measurements were carried out using an SPS11 100 n instrument, manufactured by “Projekt Messtechnik” in Ulm, Germany. […] The sample was then subjected to preselected relative humidities in accordance with a defined program, the change in mass being determined over the time. […]

[2] = Aqueous solubility determination (suspension equilibration for three days, HPLC); format: physicochemical; conditions: pure water, 25±2° C. (ambient temperature), about three days of suspension equilibration, filtered solution
Experimental: The aqueous solubility of Deferasirox free drug substance and the multicomponent crystalline system of the present invention (Deferasirox-Isonicotinamide co-crystal) was determined in water at ambient temperature after about three days of suspension equilibration using HPLC for the determination of the concentration in the filtered solution.
Solubility determinations were carried out in pure water at 25±2° C. Suspensions with about 50 mg the solid form, either the co-crystal of the present invention or deferasirox free drug substance in 7 mL water were prepared an equilibrated for three days before the solution phase was filtered off and tested by HPLC.
HPLC was carried out on an Agilent 1100 HPLC chromatograph equipped with a UV-vis detection unit. The column type used was a Waters XTerra MS C18, 100×4.6 mm, 5 μm (FK-CC01F). […]
882 mg of Deferasirox and 290 mg of isonicotinamide are dissolved in a mixture of 15 ml acetone and 3 ml THF by shortly heating to reflux temperature. […] Then suspension is filtered and the concentration in the solution determined by HPLC. […]

Structure (SMILES): O=C(O)c1ccc(-n2nc(-c3ccccc3O)nc2-c2ccccc2O)cc1 [Deferasirox free drug substance, 4-[3,5-bis(2-hydroxyphenyl)-1H-1,2,4-triazol-1-yl]benzoic acid]
- H2O content at 50% r.h. ([1]; 50% relative humidity): 0.5%
- H2O content at 95% r.h. ([1]; 95% relative humidity): 3.6%
- solubility thermodynamic at 3 days [2]: < 1 µg/mL
